{"source": "paper PMC8261488", "about": "“Contraceptive progestins with androgenic properties stimulate breast epithelial cell proliferation” (EMBO Molecular Medicine, 2021)", "key": {"HBECs [1]": {"tested_on": "HBECs", "experiment": "In vivo growth of intraductal HBEC xenografts measured by radiance", "description": "To compare the effects of progesterone and different progestins on HBECs in vivo, we infected single cell suspensions obtained from fresh reduction mammoplasty specimens with GFP‐luciferase2‐expressing lentiviruses. The infected cell mixture was grafted intraductally to up to 5 glands of as many recipients as possible. The engraftment and growth of the xenografted cells were monitored weekly by in vivo imaging. When radiance reached > 10E07 on average per mammary gland, 60‐day‐release pellets were implanted subcutaneously, usually within 3–10 weeks after cell injection. At sacrifice, blood was collected and plasma levels of the administered compounds as well as endogenous steroid hormones were determined by liquid chromatography‐mass spectrometry (LC‐MS) (Laszlo et al, 2019).\nNext, the in vivo growth of HBEC xenografts stimulated with progesterone or different progestins was analyzed. […] In addition, the fold change radiance of treated versus untreated samples at endpoint was calculated (Fig 5A–C).\n(§3) Mice were anesthetized by intraperitoneal injection with 10 mg/kg xylazine and 90 mg/kg ketamine (Graeub) and injected intraductally with 10 μl cell suspension per gland. Bioluminescence imaging was performed as described (Sflomos et al, 2016). After 3–10 weeks, when bioluminescence from individual glands reached 10^7 total flux (p/s/cm2/sr), animals were assigned to different treatment groups and hormone pellets implanted subcutaneously. Enzalutamide (Selleckchem, Catalog No. S1250) dissolved in 15% DMSO in PEG300 was injected intraperitoneally 3 times/week at 30 mg/kg.\nPellets were prepared by mixing the required amount of part A, MP3745/E81949 and part B, MP3744/E81950 of low consistency silicon elastomer (MED‐4011) and hormone powder to homogeneity. Mix was transferred to a syringe and incubated at 37°C overnight. The silicon‐hormone mass was removed from the syringe and cut to pieces, as described (Duss et al, 2007). The original protocol was adapted for different doses as described below."}, "[2]": {"tested_on": "endogenous hormone levels in mice", "experiment": "Endogenous steroid hormone plasma levels in treated host mice by LC-MS", "type": "in vivo, mouse", "settings": "xenografted NSG females with pellets", "from_the_text": "Next, we assessed whether progesterone and progestins differentially affected endogenous hormone levels in mice. Plasma 17‐β‐estradiol levels were not affected by any of the treatments (Fig 4H). […] Plasma testosterone levels were not altered by any treatment with the exception of DSP, which decreased them (Fig 4H). Thus, prolonged exposures to progestins differentially affect endogenous progesterone plasma levels and DSP decreases testosterone plasma levels in host mice."}, "women": {"tested_on": "women", "settings": "cited from earlier work"}, "AR [3]": {"tested_on": "AR", "experiment": "In vivo growth of LNG-treated HBEC xenografts transduced with shAR or sh scramble", "parameters": "species or system human", "settings": "within 60 days", "from_the_text": "To further test the requirement for AR in the context of progestin‐driven proliferation, we took a genetic approach and down modulated AR expression in freshly isolated HBECs using a GFP‐luciferase2‐shAR or GFP‐luciferase2‐sh scramble expressing lentivirus. […] Double IF with anti‐GFP and anti‐AR antibodies and analysis by image quantification confirmed the down regulation of AR protein levels in the shAR infected cells identified based on GFP co‐expression (Fig 7E and F)."}, "Wnt4": {"tested_on": "Wnt4", "experiment": "Wnt4 transcript levels by RT-PCR in mouse mammary organoids stimulated ex vivo", "type": "cell-based"}, "HBECs [4]": {"tested_on": "HBECs", "experiment": "MKI67/Ki67 expression in xenografted HBECs", "type": "in vivo, human", "settings": "21 days pellets; for cell proliferation (KI67 and hECAD double+ cells), overall analysis: HBECs from 11 different patients; for cell proliferation (KI67 and hECAD double+ cells): one mammoplasty (M310)", "from_the_text": "(§1) Next, we sought for a readout of in vivo cell proliferation different from radiance. […] Given that MKI67 expression could replace the luciferase measurements as a readout, we used a modified experimental setup for a second round of experiments. We derived HBECs from viably frozen mammoplasty samples (Appendix Table S3) and engrafted them to different mammary glands of NSG females without viral infection. Four months later, the 24 recipient females, each engrafted with 5 different mammoplasties received pellets containing either vehicle, progesterone, or 1 of 6 progestins for 21 days. At sacrifice, xenografted glands were histologically sectioned and cell proliferation was quantified using co‐IF with anti‐MKI67 and anti‐hECAD antibodies. For one of the mammoplasties, we were able to obtain measurements for all experimental conditions (Fig 5I). […] For the remaining mammoplasties, between 3 and 8 different experimental conditions were successfully quantified (Appendix Table S4). […] CPA (P < 0.0001) decreased proliferation, whereas CMA and DSP had no effect (Fig 5K). As AR signaling increases AR protein levels, we performed co‐IF for AR and hECAD as another means to assess AR signaling activity.\n(§2) Tissues were fixed for 2 h at room temperature in 4% paraformaldehyde and paraffin‐embedded. Dewaxed and rehydrated paraffin sections were pretreated in 10 mM Na citrate (pH 6.0) at 95° for 20 min. Blocking was performed with 1% BSA for 60 min. Primary antibodies used were as follows: Ki67 (rabbit α‐Ki67, clone Sp6, Spring Amsbio, dilution 1:200), ER (rabbit α‐ER, clone Sp1, Zytomed RTU), PR (rabbit α‐PR, clone 1E2, Ventana RTU), AR (rabbit α‐AR, clone SP107, Thermo Fisher, diluted 1:200), CK7 (rabbit α‐CK7, clone Sp52, Abcam, diluted 1:500), CK19 (mouse KS19.2 (Z105.6), American Research Products Inc. (diluted 1:50), and mouse α‐ECAD (clone G‐10, sc‐8426, diluted 1:100). For IHC, chromogenic revelation was performed with ChromoMap DAB kit (Roche Diagnostics, Switzerland) and sections were counterstained with Mayer’s hematoxylin. For fluorescence microscopy, nuclei were counterstained with DAPI (Sigma). IHC for ER, PR, and AR was performed on Discovery Ventana ULTRA (44). IHC images were acquired on Leica DM 2000 with Leica DFC450 C camera. IF images were acquired on Zeiss LSM700 confocal microscope. Slides were scanned with Olympus VS120‐L100 slide scanner with 20×/0.75 objective and Pike F505 C Color camera. Images were loaded into QuPath using the BioFormats extension (Bankhead et al, 2017)."}, "Rankl": {"tested_on": "Rankl", "experiment": "Rankl transcript levels by RT-PCR in mouse mammary organoids stimulated ex vivo", "type": "cell-based"}, "KLK3": {"tested_on": "KLK3", "experiment": "KLK3 mRNA in xenografted HBECs by RT-PCR with human-specific primers", "type": "in vivo", "settings": "3 weeks of treatment (Fig 5H)", "from_the_text": "Consistent with AR and PR sharing a common hormone response element (Claessens et al, 1996), KLK3 was induced upon progestin stimulation. […] This is in agreement with previous findings that KLK3 expression is under the control of both androgens and progestins in T47D cells (Zarghami et al, 1997).\nas §1\nHuman breast microstructures and mouse organoids were homogenized in Trizol (Invitrogen). Aqueous phase containing RNA was chloroform extracted and processed with miRNeasy extraction kit (Qiagen). cDNA was synthesized using random p(dN)6 primers (Roche) and MMLV reverse transcriptase (Invitrogen). SYBR Green PCR Core Reagent System (Qiagen) was used for semi‐quantitative real time (RT‐PCR) using the following primers."}, "HBECs [5]": {"tested_on": "HBECs", "experiment": "MKI67/Ki67 expression in xenografted HBECs", "type": "in vivo, human", "settings": "3 weeks of treatment, at endpoint"}, "human breast epithelium": {"tested_on": "human breast epithelium", "settings": "female, mouse, in vivo, 8 months", "protocol": "All the engrafted glands were processed for histological analysis and H&E stained.\nas §3"}, "AR [6]": {"tested_on": "AR", "parameters": "method as in earlier work", "settings": "various assays, ref Fuhrmann et al, 1995, Muhn et al, Bouchard, 2005, Mishell, 2008, Schneider et al, 2009, Africander et al, 2011, Louw‐du Toit et al, 2017; cited from earlier work"}, "HBECs [7]": {"tested_on": "HBECs", "experiment": "In vivo growth of HBEC xenografts treated with LNG with or without enzalutamide", "parameters": "species or system human", "settings": "3 PDXs, radiance", "protocol": "Mice were anesthetized by intraperitoneal injection with 10 mg/kg xylazine and 90 mg/kg ketamine (Graeub) and injected intraductally with 10 μl cell suspension per gland. […] After 3–10 weeks, when bioluminescence from individual glands reached 10^7 total flux (p/s/cm2/sr), animals were assigned to different treatment groups and hormone pellets implanted subcutaneously. Enzalutamide (Selleckchem, Catalog No. S1250) dissolved in 15% DMSO in PEG300 was injected intraperitoneally 3 times/week at 30 mg/kg."}, "[8]": {"settings": "NSG, mouse, in vivo", "protocol": "At sacrifice, blood was collected and plasma levels of the administered compounds as well as endogenous steroid hormones were determined by liquid chromatography‐mass spectrometry (LC‐MS) (Laszlo et al, 2019).\nPlasma steroid concentrations were measured by LC–MS High Resolution (Q‐Executive, Thermo Fisher Scientific) for testosterone, progesterone, and 17β‐estradiol as described in (Cagnet et al, 2018) and for progestins as described in (Laszlo et al, 2019)."}, "[9]": {"tested_on": "human breast tissue microstructures (EpCAM+ cells)", "experiment": "RNA sequencing of EpCAM+ cells from human breast tissue microstructures stimulated ex vivo", "type": "cell-based", "settings": "14–18 h exposure, n = 3", "from_the_text": "Having ascertained with mammary tissue from inbred mice that androgenic and anti‐androgenic progestins have different effects on the expression of important PR target genes, we set out to assess the transcriptional response to PR signaling in the human breast epithelium. In view of our goal to perform in vivo experiments with the natural ligand progesterone, we compared the effects of progesterone to those of its stable analog R5020 which is commonly used for in vitro experiments on breast epithelial cells. For this, we used an ex vivo approach with human breast tissue similar to the mouse organoid technique used above that maintains hormone responsiveness (Tanos et al, 2013; Sflomos et al, 2015). In brief, 3 fresh mammoplasty tissue from women with follicular phase progesterone levels were cut into 1 mm^3 pieces and aliquoted for digestion with collagenase and concomitant exposure to either vehicle, R5020, or progesterone for 14–18 h. Tissue microstructures that contain epithelial cells, immune cells, and fibroblasts in varying proportions were recovered. To reduce interpatient variation as far as it relates to different ratios of various cell types, at the end of the treatment, the tissue microstructures were dissociated to single cells and enriched for epithelial cells by FACS sorting with antibodies against the epithelial cell surface marker EpCAM (Fig 2A). The EpCAM^+ cells were processed for RNA sequencing. […] Progesterone affected expression levels of 65 genes, whereas R5020 affected 112 genes, including RANKL (adj.P < 0.05) (Appendix Fig S2A). More than 90% of the progesterone‐induced gene expression changes were induced by R5020 (Fig 2C). […] R5020 induced higher‐fold changes as indicated by the estimated slope of the curve being > 1 (P < 0.0001). […]\nAll experiments conformed to the principles set out in the WMA Declaration of Helsinki and the Department of Health and Human Services Belmont Report. […] Human tissue samples were mechanically and enzymatically dissociated, single cells were prepared, counted, and spin infected using Lenti‐ONE CMV‐GFP(2A)Luc2 WPRE VSV, V621004001, or pR980 Luc2GFP (GEGTECH) at a multiplicity of infection of 1 at 2.500 rpm for 3 h at room temperature in 500 μl of serum‐free medium. […]\nRNAseq libraries were prepared using Truseq Stranded RNA producing single‐end reads of 100 bp and sequenced on Illumina Hiseq 2500 instrument. […]\nSequencing reads were quality controlled using FastQC (v0.11.8) (Wingett & Andrews, 2018). Mouse raw reads were aligned to the mouse genome (mm9) and human raw reads to the human genome (hg19) using TopHat (v2.0.11) (Kim et al, 2013). […]"}, "AR [10]": {"tested_on": "AR", "experiment": "Percentage of AR+ cells in xenografted HBECs by co-IF for AR and hECAD", "type": "in vivo, human", "settings": "21 days pellets, HBECs from 11 different patients", "from_the_text": "as §1, §2"}, "[11]": {"settings": "60 days of treatment, subcutaneous pellets"}, "[12]": {"settings": "BalbC females, 6 h of stimulation"}, "[13]": {"settings": "BalbC-derived organoids, 24 h of stimulation"}}, "data": [{"molecule": "C#C[C@]1(O)CC[C@H]2[C@@H]3CCC4=CC(=O)CC[C@@H]4[C@H]3CC[C@@]21CC", "note": "[LNG, levonorgestrel]", "values": [{"measurement": "cell proliferation by radiance measurements", "setting": "HBECs [1]; 3 weeks of treatment, mammoplasty M354", "result": "stimulated cell proliferation"}, {"measurement": "growth (course of radiance) of engrafted HBECs versus control", "setting": "HBECs [1]; [11]", "result": "increased growth"}, {"measurement": "endogenous progesterone plasma levels (estrous cycle-related variation)", "setting": "[2]", "result": "did not affect"}, {"measurement": "breast cancer risk", "setting": "women; women taking androgenic progestins, ref Rossouw et al, 2002", "result": "elevated breast cancer risk"}, {"measurement": "RR of breast cancer", "setting": "women; women, ref Hunter et al, 2010", "result": 3.05}, {"measurement": "lobular breast cancer risk compared to the general population", "setting": "women; women, ref Hunter et al, 2010", "result": 1.45}, {"measurement": "RR for ductal breast cancer", "setting": "women; women, ref Soini et al, 2016", "result": 1.20}, {"measurement": "reduction of LNG-induced radiance by down regulation of AR expression (shAR)", "setting": "AR [3]", "result": 22, "unit": "%"}, {"measurement": "Wnt4 transcript levels over vehicle-treated control", "setting": "Wnt4; [12]", "result": 4.8, "unit": "fold"}, {"measurement": "Wnt4 transcript induction", "setting": "Wnt4; [13]", "result": 36.3, "unit": "fold"}, {"measurement": "Wnt4 transcript induction", "setting": "Wnt4; C57Bl/6 mice, 6 h, 20 nM", "result": 4.3, "unit": "fold"}, {"measurement": "cell proliferation (KI67 and hECAD double+ cells), overall analysis", "setting": "HBECs [4]", "result": "increased"}, {"measurement": "cell proliferation (KI67 and hECAD double+ cells)", "setting": "HBECs [4]", "result": "significantly increased"}, {"measurement": "Rankl transcript levels over vehicle-treated control", "setting": "Rankl; [12]", "result": 27.7, "unit": "fold"}, {"measurement": "Rankl transcript induction", "setting": "Rankl; [13]", "result": 253.9, "unit": "fold"}, {"measurement": "Rankl transcript induction", "setting": "Rankl; C57Bl/6 mice, 6 h, 20 nM", "result": 21.6, "unit": "fold"}, {"measurement": "KLK3 transcript expression", "setting": "KLK3", "result": "increased"}, {"measurement": "MKI67 expression at mRNA level", "setting": "HBECs [5]", "result": "increased"}, {"measurement": "MKI67 expression at protein level", "setting": "HBECs [5]", "result": "increased"}, {"measurement": "morphologic changes in xenografts (H&E)", "setting": "human breast epithelium", "result": "3 or 4 grafts showed diffuse and in some cases marked acinar proliferation"}, {"measurement": "androgenic / anti-androgenic activity", "setting": "AR [6]", "result": "androgenic activity"}, {"measurement": "proliferation rates of PDXs upon LNG exposure", "setting": "HBECs [7]", "result": "increased the proliferation rates in 2 of 3 PDXs"}]}, {"molecule": "CC(=O)[C@H]1CC[C@H]2[C@@H]3CCC4=CC(=O)CC[C@]4(C)[C@H]3CC[C@]12C", "note": "[progesterone]", "values": [{"measurement": "plasma progesterone relative to average levels in control mice", "setting": "[8]", "result": 4.9, "unit": "times"}, {"measurement": "RANKL expression (variant stabilized gene expression values)", "setting": "[9]", "result": "increased expression"}, {"measurement": "WNT4 expression (variant stabilized gene expression values)", "setting": "[9]", "result": "increased expression"}, {"measurement": "growth (course of radiance) of engrafted HBECs versus control", "setting": "HBECs [1]; [11]", "result": "increased"}, {"measurement": "relative radiance at endpoint over control (FC)", "setting": "HBECs [1]; [11]", "result": 1.3, "unit": "fold"}, {"measurement": "association with breast cancer risk", "setting": "women", "result": "not associated with breast cancer risk"}, {"measurement": "cell proliferation (KI67 and hECAD double+ cells), overall analysis", "setting": "HBECs [4]", "result": "increased"}, {"measurement": "cell proliferation (KI67 and hECAD double+ cells)", "setting": "HBECs [4]", "result": "significantly increased"}, {"measurement": "percentage of AR+ cells (AR index)", "setting": "AR [10]", "result": "decreased"}]}]}
